Data on 13 compounds can be found in PubChem BioAssay (NCI).

Values joined by “and” are separate entries in the source; they are usually repeats but may differ in a detail not shown here. Equal values may be shown once.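 Where inhibition never reached the appropriate level, the endpoint shown equals the highest concentration tested. Otherwise, values were interpolated linearly from a five-concentration, 48-hour dose response in 96-well plates. The concentration for 50% growth inhibition is given as GI50. TGI marks complete inhibition of growth.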 Some results are limits rather than exact numbers.

Some test systems named below: DLD-1 colon; DMS 114 small cell lung; HOP-62 NSCLC; HOP-92 NSCLC; SF-539 CNS; SNB-78 CNS; XF 498 CNS; HCC-2998 colon; BT-549 breast; MDA-MB-231 breast.
What all share (assay): DTP human tumour cell line panel, 48 h

In general, TGI refers to the concentration at which net growth stops. A lower TGI goes with greater sensitivity of the cells. Turning to `O=C1c2ccccc2C(=O)C1(O)c1c[nH]c2ccccc12`, the TGI with DLD-1 colon, in the assay on DMS 114 small cell lung, with HOP-62 NSCLC, in the assay with HOP-92 NSCLC, in the assay with SF-539 CNS and with SNB-78 CNS was above 100 µM throughout. Also, the TGI with XF 498 CNS is above 100 µM.
Turning to `CCCN(CCC)C(=O)c1c([N+](=O)[O-])cc(C(F)(F)F)cc1[N+](=O)[O-]`, the TGI was above 100 µM in the assay with HOP-62 NSCLC, 93.3 µM in the assay with HOP-92 NSCLC, above 100 µM in the assay with SF-539 CNS and above 100 µM in the assay with SNB-78 CNS.
Consider `[N-]=[N+]=C1C(=O)NN=C1c1ccccc1`, for which the TGI with DLD-1 colon, in the assay on DMS 114 small cell lung, in the assay with HCC-2998 colon, with HOP-92 NSCLC, in the assay with SF-539 CNS and in the assay with XF 498 CNS was above 100 µM each time.
With `CN(Cc1ccccc1)C(=O)c1ccccc1C(=O)O`, the TGI with DLD-1 colon, in the assay on DMS 114 small cell lung, with HCC-2998 colon, with HOP-92 NSCLC, in the assay with SF-539 CNS and in the assay on XF 498 CNS was above 100 µM each time.
By GI50 is commonly meant the concentration at which growth is held to half of that of the control. Turning to `CC/C=C\C[C@H](O)C/C=C1/C(=O)C=C[C@@H]1C/C=C\CCCC(=O)OC`, the GI50 was 2.15 µM with BT-549 breast; 2.09 µM in the assay with HCC-2998 colon; 1.48 µM in the assay on HOP-62 NSCLC; 3.22 µM with HOP-92 NSCLC; 2.94 µM with MDA-MB-231 breast; 2.75 µM in the assay with SF-539 CNS. Moreover, the TGI with BT-549 breast came to 6.07 µM; in the assay on HCC-2998 colon, 3.68 µM; with HOP-62 NSCLC, 5.15 µM; in the assay on HOP-92 NSCLC it was 8.67 µM; with MDA-MB-231 breast it was 9.23 µM; with SF-539 CNS, 7.33 µM.
As for `CC12OC(C(=O)C13CC3)C1C(=O)c3ccc4c(ccc5ccccc54)c3C(=O)C12` (stereo not given), the GI50 is 29.6 µM in the assay with BT-549 breast; 20.4 µM in the assay on HCC-2998 colon; 28.9 µM in the assay with HOP-62 NSCLC; 27.5 µM with HOP-92 NSCLC; 13 µM with MDA-MB-231 breast; 32.2 µM with SF-539 CNS. The concentration for total growth inhibition (TGI) with BT-549 breast was 55.9 µM; with HCC-2998 colon it was above 100 µM; with HOP-62 NSCLC it was 99.8 µM; with HOP-92 NSCLC, above 100 µM; in the assay on MDA-MB-231 breast, 77.9 µM; in the assay with SF-539 CNS, above 100 µM.
As for `COc1c2c(cc3c1OCO3)[C@]13C=C[C@H](OC)C[C@H]1N(C2)CC3O` (stereo not given in full), the TGI in the assay on BT-549 breast, in the assay on HCC-2998 colon, in the assay on HOP-62 NSCLC, in the assay with HOP-92 NSCLC, with MDA-MB-231 breast and with SF-539 CNS was above 100 µM throughout.
Take `Nc1nc(Nc2cccnc2)sc1C(=O)c1ccccc1F`: the GI50 with BT-549 breast was 1.64 µM; with HCC-2998 colon, 0.309 µM; with HOP-62 NSCLC it was 6.67 µM; with HOP-92 NSCLC it was 4.16 µM; in the assay with MDA-MB-231 breast, 3.47 µM; in the assay with SF-539 CNS, 1.52 µM. In addition, the TGI with BT-549 breast was 6.54 µM; in the assay on HCC-2998 colon it was 0.972 µM; in the assay on HOP-62 NSCLC, above 93.8 µM; with HOP-92 NSCLC, above 100 µM; in the assay with MDA-MB-231 breast, above 100 µM; in the assay on SF-539 CNS, 3.88 µM.
Regarding `CC1=CC(=O)C=CC1=O`, the GI50 in the assay with BT-549 breast was 16.2 µM and 14.9 µM; with HCC-2998 colon it was 13.2 µM and 18.6 µM; in the assay on HOP-62 NSCLC it was 35.9 µM and 25.3 µM; with HOP-92 NSCLC, 16.7 µM; in the assay with MDA-MB-231 breast it was 16.2 µM; in the assay with SF-539 CNS, 29.3 µM and 17 µM. Moreover, the TGI is 40 µM and 28.3 µM in the assay with BT-549 breast; 26.2 µM and 35.4 µM in the assay with HCC-2998 colon; 75.3 µM in the assay with HOP-62 NSCLC; 33.4 µM in the assay with HOP-92 NSCLC; 30.4 µM in the assay with MDA-MB-231 breast; 31.4 µM in the assay with SF-539 CNS.
For `CCc1nc2cc(F)c(/C=C/C(=O)NO)cc2c(=O)n1CCc1ccccc1`, the GI50 is 0.377 µM with BT-549 breast; 0.381 µM in the assay with HCC-2998 colon; 0.291 µM with HOP-62 NSCLC; 0.33 µM in the assay on HOP-92 NSCLC; 0.376 µM with MDA-MB-231 breast; 0.341 µM in the assay on SF-539 CNS. Also, the TGI with BT-549 breast was determined as 12.6 µM; in the assay on HCC-2998 colon, 12.7 µM; in the assay with HOP-62 NSCLC, 1.74 µM; in the assay on HOP-92 NSCLC, 4.87 µM; in the assay on MDA-MB-231 breast, 15.3 µM; with SF-539 CNS it was 3.36 µM.
Consider `COc1c(C(=O)/C=C/c2ccccc2)c(O)cc2occc12`, for which the GI50 with BT-549 breast is 7.72 µM; in the assay on HCC-2998 colon it was 3.76 µM; with HOP-62 NSCLC, 11.3 µM; in the assay with HOP-92 NSCLC, 1.64 µM; in the assay on MDA-MB-231 breast it was 4.38 µM; in the assay with SF-539 CNS, 3.22 µM. Further, the TGI in the assay on BT-549 breast stood at 27.8 µM; in the assay on HCC-2998 colon it was 14.3 µM; in the assay on HOP-62 NSCLC, 25.2 µM; with HOP-92 NSCLC, 7.09 µM; in the assay with MDA-MB-231 breast, 17.5 µM; in the assay on SF-539 CNS, 13.5 µM.
Turning to `Cc1cc(C(=O)Nc2ccc3cc(CN4CCOCC4)ccc3n2)c(C)n1-c1ccccc1`, the GI50 with BT-549 breast was 1.17 µM; with HCC-2998 colon, 8.78 µM; with HOP-62 NSCLC, 1.72 µM; with HOP-92 NSCLC it was 2.15 µM; with MDA-MB-231 breast, 8.09 µM; with SF-539 CNS, 4.84 µM. Also, the TGI in the assay on BT-549 breast was 5.84 µM; in the assay on HCC-2998 colon it was above 100 µM; in the assay on HOP-62 NSCLC, 8.05 µM; in the assay with HOP-92 NSCLC, 40.3 µM; with MDA-MB-231 breast it was 51.8 µM; in the assay with SF-539 CNS it was 27.7 µM.
For `O=C1/C(=C(/c2ccccc2)N2CCOCC2)Cc2ccccc21`, the GI50 with BT-549 breast was 1.26 µM; with HCC-2998 colon, 2.08 µM; in the assay on HOP-62 NSCLC, 12.5 µM; with HOP-92 NSCLC, 1.24 µM; in the assay with MDA-MB-231 breast, 2.3 µM; in the assay on SF-539 CNS it was 1.9 µM. In addition, the TGI with BT-549 breast was 3.2 µM; in the assay on HCC-2998 colon, 4.26 µM; with HOP-62 NSCLC, 27.1 µM; with HOP-92 NSCLC, 3.01 µM; in the assay on MDA-MB-231 breast, 5.48 µM; with SF-539 CNS it was 3.91 µM.
